pIC50: −log10 of the molar value. Counter-ions that a name gives are not always drawn.
Molecular target: human recombinant p56^lck (Homo sapiens, UniProt P06239)
Assay: Inhibition of T-cell tyrosine kinase p56^lck (incorporation of 33P from [γ-^33 P] ATP into peptide substrate)
Type: biochemical
Settings: 10 μM ATP, 20 μM peptide substrate, 30° C., 60 minutes, pH 7.5
Text: As mentioned earlier, the compounds of formula I, the pharmaceutically acceptable salts of basic compounds of formula I with acids, and the pharmaceutically acceptable salts of acidic compounds of formula I with bases, are all inhibitors of the T-cell tyrosine kinase p56^lck which will down-regulate T-cell activation leading to immunosuppression and decrease inflammation. Therefore, the compounds of the invention are anti-inflammatory agents which can be used in combating the inflammatory condition which occurs in various diseases, as well as immunosuppressives which can be used, for example, for preventing graft rejection in transplantation therapy.
Reaction mixtures (25 μl) containing human recombinant p56^lck, 10 mM MnCl2, 10-μM ATP, 0.2 mM sodium vanadate, 20 μM peptide substrate (AlaGluGluGluIleTyr-GlyGlu-PheGluAlaLysLysLysLys, [γ-^33 P] ATP (1000-2000 cpm/pmol) in 25 mM HEPES buffer (pH 7.5) and 0.1% Triton X-100 are incubated at 30° C. for 60 minutes and the reaction is then stopped by the addition of 10 μl of 2% orthophosphoric acid. Radiolabelled peptide is separated from unreacted [γ-^33 P] ATP by filtration through Millipore Multiscreen phosphocellulose cation exchange paper filters. Bound peptide is washed with 0.5% orthophosphoric acid and incorporated radioactivity is determined by scintillation spectrometry.
The degree of enzyme blockade at each concentration of test compound is calculated from the following equation: [formula]
The IC50 value is that concentration of test compound which reduces by 50% the protein kinase-induced incorporation of the radiolabel under the test conditions described earlier.

Chain of human recombinant p56^lck (P06239 whole entry): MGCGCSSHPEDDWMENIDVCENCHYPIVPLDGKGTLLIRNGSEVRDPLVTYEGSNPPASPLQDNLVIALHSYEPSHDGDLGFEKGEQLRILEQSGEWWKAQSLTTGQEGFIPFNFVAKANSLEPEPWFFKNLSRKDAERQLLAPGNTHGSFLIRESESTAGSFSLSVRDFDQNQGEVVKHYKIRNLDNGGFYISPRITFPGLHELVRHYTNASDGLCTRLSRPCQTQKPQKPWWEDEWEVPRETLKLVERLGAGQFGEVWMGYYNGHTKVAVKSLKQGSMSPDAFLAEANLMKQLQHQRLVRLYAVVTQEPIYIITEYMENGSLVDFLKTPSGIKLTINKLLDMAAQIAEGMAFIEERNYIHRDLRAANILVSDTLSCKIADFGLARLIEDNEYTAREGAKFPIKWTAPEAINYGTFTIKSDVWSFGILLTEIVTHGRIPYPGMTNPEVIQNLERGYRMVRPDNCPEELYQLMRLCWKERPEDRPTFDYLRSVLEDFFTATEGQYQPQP

| pIC50 | SMILES |
| --- | --- |
| 8.00 | CCN(CC)CCOc1ccc(Nc2ncc3c(n2)N(C)C(=O)N(c2c(Cl)cccc2Cl)C3)cc1 [Example 1, 3-(2,6-dichlorophenyl)-7-[4-[2-(diethylamino)ethoxy]anilino]-3,4-dihydro-1-methylpyrimido[4,5-d]pyrimidin-2(1H)-one] |
| 9.22 | CCN(CC)CCOc1ccc(Nc2ncc3c(n2)N(c2ccccc2)C(=O)N(c2c(Cl)cccc2Cl)C3)cc1 [Example 7, 3-(2,6-dichlorophenyl)-7-[4-[2-(diethylamino)ethoxy]anilino]-3,4-dihydro-1-phenylpyrimido[4,5-d]pyrimidin-2(1H)-one] |
| 7.72 | CCN(CC)CCOc1ccc(Nc2ncc3c(n2)N(Cc2cccnc2)C(=O)N(c2c(Cl)cccc2Cl)C3)cc1 [Example 10, 3-(2,6-dichlorophenyl)-7-[4-[2-(diethylamino)ethoxy]anilino]-3,4-dihydro-1-[(3-pyridyl)-methyl]pyrimido[4,5-d]pyrimidin-2(1H)-one trifluoroacetate] |
| 6.58 | O=C1N(c2c(Cl)cccc2Cl)Cc2cnc(Nc3ccncc3)nc2N1c1ccccc1 [Example 22, 3-(2,6-dichlorophenyl)-3,4-dihydro-1-phenyl-7-[(4-pyridyl)amino]pyrimido[4,5-d]pyrimidin-2(1H)-one] |
| 10.52 | NCCc1cccc(N2C(=O)N(c3c(Cl)cccc3Cl)Cc3cnc(Nc4ccccc4)nc32)c1 [Example 38, 1-[3-(2-aminoethyl)phenyl]-7-anilino-3-(2,6-dichlorophenyl)-3,4-dihydropyrimido[4,5-d]pyrimidin-2(1H)-one] |
| 8.22 | NCCc1cccc(N2C(=O)N(c3ccccc3Br)Cc3cnc(Nc4ccccc4)nc32)c1 [Example 50, 1-[3-(2-aminoethyl)phenyl]-7-anilino-3-(2-bromophenyl)-3,4-dihydropyrimido[4,5-d]pyrimidin-2(1H)-one] |
| 7.77 | O=C1N(c2ccccc2Br)Cc2cnc(Nc3ccccc3)nc2N1c1ccc(CO)cc1 [Example 63, 7-anilino-3-(2-bromophenyl)-3,4-dihydro-1-[4-(hydroxymethyl)phenyl]pyrimido[4,5-d]pyrimidin-2(1H)-one] |
| 9.40 | CCN(CC)CCOc1ccc(Nc2ncc3c(n2)N(c2cccc(CCN(C)C)c2)C(=O)N(c2ccc(Cl)cc2Cl)C3)cc1 [Example 82, 3-(2,4-dichlorophenyl)-7-[4-[2-(diethylamino)ethoxy]anilino]-3,4-dihydro-1-[3-(2-(dimethylamino)ethyl)phenyl]pyrimido[4,5-d]pyrimidin-2(1H)-one] |
| 8.15 | CCC(CC)(CN)c1cccc(N2C(=O)N(c3c(Cl)cccc3Cl)Cc3cnc(Nc4ccccc4)nc32)c1 [Example 85, 1-[3-(1-aminomethyl-1-ethyl-propyl)-phenyl]-3-(2,6-dichloro-phenyl)-7-phenylamino-3,4-dihydro-pyrimido[4,5-d]pyrimidin-2(1H)-one trifluoroacetate] |

Source: patent US6150373A, “Bicyclic nitrogen heterocycles” (Hoffmann-La Roche Inc., priority 1998, dated 2000)
